Experimental data taken from ChEMBL document CHEMBL1150776, “Naturally occurring pentacyclic triterpenes as inhibitors of glycogen phosphorylase: synthesis, structure-activity relationships, and X-ray crystallographic studies” (J Med Chem, 2008).
pIC50: −log10 of the molar value. Activity calls are given as the source filed them. The rule behind the calls is not given here.

Columns and labels:
[1] = target: T1, Glycogen phosphorylase, muscle form (Oryctolagus cuniculus, UniProt P00489); assay: (§1) Inhibition of rabbit muscle glycogen phosphorylase A assessed as phosphate release from glucose-1-phosphate
T1 sequence (P00489 whole entry): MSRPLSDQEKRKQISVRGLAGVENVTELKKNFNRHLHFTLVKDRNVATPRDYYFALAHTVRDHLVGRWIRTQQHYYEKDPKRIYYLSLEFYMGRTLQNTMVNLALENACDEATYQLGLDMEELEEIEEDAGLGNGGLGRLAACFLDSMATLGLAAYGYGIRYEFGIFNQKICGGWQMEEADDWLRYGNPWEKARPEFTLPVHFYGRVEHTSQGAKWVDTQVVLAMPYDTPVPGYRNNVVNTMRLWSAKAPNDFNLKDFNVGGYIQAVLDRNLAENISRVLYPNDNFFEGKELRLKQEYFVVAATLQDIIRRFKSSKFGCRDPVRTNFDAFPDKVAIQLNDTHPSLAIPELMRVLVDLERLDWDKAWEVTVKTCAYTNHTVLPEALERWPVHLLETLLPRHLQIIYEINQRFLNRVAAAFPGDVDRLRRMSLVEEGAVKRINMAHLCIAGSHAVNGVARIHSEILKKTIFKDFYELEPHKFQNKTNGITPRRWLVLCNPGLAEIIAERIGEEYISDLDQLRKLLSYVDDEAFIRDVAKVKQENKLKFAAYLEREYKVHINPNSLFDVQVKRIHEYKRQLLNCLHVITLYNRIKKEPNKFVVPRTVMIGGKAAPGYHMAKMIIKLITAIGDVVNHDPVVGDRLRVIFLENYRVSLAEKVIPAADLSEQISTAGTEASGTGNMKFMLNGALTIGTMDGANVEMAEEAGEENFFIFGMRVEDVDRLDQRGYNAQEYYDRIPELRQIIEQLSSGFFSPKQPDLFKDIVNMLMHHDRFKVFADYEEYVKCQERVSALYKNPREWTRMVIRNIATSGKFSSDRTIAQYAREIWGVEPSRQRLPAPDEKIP

[2] = target: T2, Glycogen phosphorylase, muscle form (Oryctolagus cuniculus) (UniProt P00489); assay: Inhibition of rabbit muscle glycogen phosphorylase A assessed as phosphate release from glucose-1-phosphate at 2000 uM
T2 sequence (whole entry): T1 sequence (P00489 whole entry)

[3] = target: T2, Glycogen phosphorylase, muscle form (Oryctolagus cuniculus); assay: as §1

SMILES	pIC50 [1]	also measured
C=C(C)[C@@H]1CC[C@]2(C(=O)O)CC[C@]3(C)[C@H](CC[C@@H]4[C@@]5(C)CC[C@H](O)C(C)(C)[C@@H]5CC[C@]43C)[C@@H]12 [BETULINIC ACID]	4.37	
C=C(C)[C@@H]1CC[C@]2(CO)CC[C@]3(C)[C@H](CC[C@@H]4[C@@]5(C)CC[C@H](O)C(C)(C)[C@@H]5CC[C@]43C)[C@@H]12 [BETULIN]	4.77	
C[C@H]1[C@H](C)CC[C@]2(C(=O)O[C@@H]3O[C@H](CO[C@@H]4O[C@H](CO)[C@@H](O[C@@H]5O[C@H](C)[C@H](O)[C@@H](O)[C@H]5O)[C@H](O)[C@H]4O)[C@@H](O)[C@H](O)[C@H]3O)CC[C@]3(C)C(=CC[C@@H]4[C@@]5(C)C[C@@H](O)[C@H](O)[C@@](C)(CO)[C@@H]5CC[C@]43C)[C@H]12		Activity [2]: inactive
C[C@H]1[C@H](C)CC[C@]2(C(=O)O)CC[C@]3(C)C(=CC[C@@H]4[C@@]5(C)C[C@@H](O)[C@H](O)[C@@](C)(CO)[C@@H]5[C@H](O)C[C@]43C)[C@H]12		Activity [3]: inactive
C=C(C)[C@@H]1CC[C@]2(C(=O)O)CC[C@]3(C)[C@H](CC[C@@H]4[C@@]5(C)CC[C@H](O)[C@@](C)(CO)[C@@H]5CC[C@]43C)[C@@H]12	4.80	
CC1(C)[C@@H](O[C@H]2O[C@H](C(=O)O)[C@@H](O)[C@H](O)[C@H]2O[C@@H]2O[C@H](C(=O)O)[C@@H](O)[C@H](O)[C@H]2O)CC[C@]2(C)[C@H]3C(=O)C=C4[C@@H]5C[C@@](C)(C(=O)O)CC[C@]5(C)CC[C@@]4(C)[C@]3(C)CC[C@@H]12 [GLYCYRRHIZIN]	3.09	
CC1(C)[C@@H](O)CC[C@]2(C)[C@H]3CC=C4[C@@H]5C[C@@](C)(C(=O)O)CC[C@]5(C)CC[C@@]4(C)[C@]3(C)CC[C@@H]12	4.09	
C[C@H]1[C@H](C)CC[C@]2(C(=O)O[C@@H]3O[C@H](CO[C@@H]4O[C@H](CO)[C@@H](O[C@@H]5O[C@@H](C)[C@@H](O)[C@H](O)[C@@H]5O)[C@H](O)[C@H]4O)[C@@H](O)[C@H](O)[C@H]3O)CC[C@]3(C)C(=CC[C@@H]4[C@@]5(C)C[C@@H](O)[C@H](O)[C@@](C)(CO)[C@@H]5[C@H](O)C[C@]43C)[C@H]12		Activity [3]: inactive

Second part, led by results:

pIC50 [1]	SMILES	also measured
4.24	C[C@H]1[C@H](C)CC[C@]2(C(=O)O)CC[C@]3(C)C(=CC[C@@H]4[C@@]5(C)CCC(=O)C(C)(C)[C@@H]5CC[C@]43C)[C@H]12 [URSONIC ACID]	
4.18	CC1(C)[C@@H](O)CC[C@]2(C)[C@H]3C(=O)C=C4[C@@H]5C[C@@](C)(C(=O)O)CC[C@]5(C)CC[C@@]4(C)[C@]3(C)CC[C@@H]12 [ENOXOLONE]	
5.05	C[C@H]1[C@H](C)CC[C@]2(C(=O)O)CC[C@]3(C)C(=CC[C@@H]4[C@@]5(C)CC[C@H](O)C(C)(C)[C@@H]5CC[C@]43C)[C@H]12 [URSOLIC ACID]	
3.53	CC1(C)CC[C@]2(C(=O)O[C@@H]3O[C@H](CO)[C@@H](O)[C@H](O)[C@H]3O)CC[C@]3(C)C(=CC[C@@H]4[C@@]5(C)CC[C@H](O)C(C)(C)[C@@H]5CC[C@]43C)[C@@H]2C1	
4.01	C[C@H]1[C@H](C)CC[C@]2(C(=O)O[C@@H]3O[C@H](CO)[C@@H](O)[C@H](O)[C@H]3O)CC[C@]3(C)C(=CC[C@@H]4[C@@]5(C)CC[C@H](O)C(C)(C)[C@@H]5CC[C@]43C)[C@H]12	
3.97	C[C@H]1[C@H](C)CC[C@]2(C(=O)O[C@@H]3O[C@H](CO)[C@@H](O)[C@H](O)[C@H]3O)CC[C@]3(C)C(=CC[C@@H]4[C@@]5(C)C[C@@H](O)[C@H](O)C(C)(C)[C@@H]5CC[C@]43C)[C@H]12	
4.72	C[C@H]1[C@H](C)CC[C@]2(C(=O)O)CC[C@]3(C)C(=CC[C@@H]4[C@@]5(C)CC[C@@H](O)C(C)(C)[C@@H]5CC[C@]43C)[C@H]12	
